# Source: patent EP0638566B1, “5-Aminoflavone derivatives, their preparation and their use as antibacterial, anti-estrogenic and/or antitumor agent” (KYOWA HAKKO KOGYO CO., LTD., priority 1993, dated 1995)
# Experiments:
# [1] = tested on: uterus weight of immature mice; experiment: Effect against the increase in uterus weight of immature mice; format: in vivo, female BALB/c mice; settings: dose 50 mg/kg, oral, three days, uteri isolated after four days
# Method: The effect against the increase in uterus weight of immature mice
# Immature female BALB/c mice, 4 weeks age, were divided into two groups and 50 µg of estradiol was subcutaneously administered to the animals of one group in the chest. The test compounds were repeatedly administered orally to each group (8 animals per group) for three days since the date of estradiol administration. After four days, the uteri were isolated and the weight thereof was measured.
# In Table 2, "estradiol (-)" represents an estradiol-untreated group and "estradiol (+)" represents an estradiol-treated group.
# [2] = tested on: Human mammary cancer MCF-7 cell; experiment: Human mammary cancer MCF-7 cell growth inhibition test (neutral red); format: cell-based; settings: MCF7, MCF-7 cells, medium with 10^-8M estradiol, 72 hours, neutral red, absorbance at 550 nm, read-out: IC50
# Method: Human mammary cancer MCF-7 cell growth inhibition test
# Each 0.1 ml of MCF-7 cells which had been prepared to 5 x 10^4/ml using a medium (referred to as Medium B hereinafter) prepared by adding 10% bovine fetal serum, 10^-8M estradiol (manufactured by Sigma), 100 units/ml penicillin and 100 µg/ml streptomycin to RPMI1640 medium was distributed in each well of 96 well-microtiter plate. […] Supernatant was removed, each 0.1 ml of Medium B containing 0.02% neutral red was added to the residue, the mixture was cultured at 37 °C for 1 hour in a CO2 gas incubator and the cells were stained by neutral red dye. Supernatant was removed and the residue was washed once with a physiological saline. Then, the dye was extracted with 0.001N hydrochloric acid/30% ethanol and the absorbance at 550 nm was determined with a microplatereader.
# [3] = tested on: estrogen-dependent human mammary cancer MCF-7; experiment: Antitumor effects against MCF-7 tumor transplanted in nude mice; format: in vivo, female BALB/c-nu/nu mice; settings: Mus musculus, MCF7; dose 50 mg/kg oral, 5 days per week for two weeks; judgement day 18; read-out: T/C
# Source text: Antitumor effects against estrogen-dependent human mammary cancer MCF-7
# The tumor fragment (2mm x 2mm x 2mm) of human hormone dependent mammary cancer MCF-7 was transplanted subcutaneously in the flank of female BALB/c-nu/nu mice (Nihon Crea), 7 to 9 weeks age. […] 3 to 4 Weeks after transplantation, mice of the tumor volume of 25 to 200 mm^3 were selected, and the test compounds were orally administered repeatedly to the groups (5 animals per group) for 5 days per a week, for total two weeks. In addition, estradiol propionate was administered again on the date of initial administration of the test compounds. Length and width of the tumor were determined every day, and the tumor volumes were calculated by means of ellipsoid approximation according to the following equation: […] [formula] The tumor volume at initial administration (Vo) and on the day of judgement (V) was calculated, and the tumor growth rate (V/Vo) was calculated. T/C value was obtained as the ratio of V/Vo value of treated group relative to that of control group.
# [4] = tested on: estrogen-dependent human mammary cancer Br-10; experiment: Antitumor effects against Br-10 tumor transplanted in nude mice; format: in vivo, female BALB/c-nu/nu mice; settings: dose 25 mg/kg oral, 5 days per week for two to four weeks; judgement day 18
# Source text: Antitumor effects against estrogen-dependent human mammary cancer Br-10
# The tumor fragment (2mm x 2mm x 2mm) of human hormone dependent mammary cancer Br-10 was transplanted subcutaneously in the flank of female BALB/c-nu/nu mice (Nihon Crea), 7 to 9 weeks age. […] 3 to 4 Weeks after transplantation, mice the tumor volume of which increased to 30 to 150 mm^3 were selected, and the test compounds were orally administered repeatedly to the groups (5 animals per group) for 5 days per a week, for total two to four weeks. Estradiol propionate was additionally administered on the date of initial administration of the test compounds and 14 days after the administration. Length and breadth of the tumor were determined every day, and the tumor volumes were calculated by means of ellipsoid approximation according to the above equation. The tumor volume at initial administration (Vo) and on the day of judgement (V) was calculated, and the tumor growth rate (V/Vo) was calculated. T/C value was obtained as the ratio of V/Vo value of treated group relative to that of control group.
structure (smiles),measurement,setting,value
"Cc1c(F)c(N)c2c(=O)cc(-c3ccc(N)c(F)c3)oc2c1F [Compound 1, 5-Amino-2-(4-amino-3-fluorophenyl)-6,8-difluoro-7-methyl-4H-1-benzopyran-4-one]",Weight of uterus,[1]; estradiol (+) (50 µg estradiol s.c.),38 mg
same,Weight of uterus,[1]; estradiol (-) (estradiol-untreated group),17 mg
same,IC50,[2],13 nM
same,response vs control in vivo at 50 mg/kg,[3],6.4%
same,T/C,[4],0.12
